Patent publication US5141627A, “Chelators whose affinity for calcium ion is increased by illumination” (The Regents of the University of California, priority 1989, dated 1992)

Columns and labels:
[1] = Ca2+ affinity by UV spectra during titration of EGTA or HEEDTA buffers; assay type: binding
Procedure: (§1) The titration was done at 22° C. with 10 mL of 100 mM KCl, 10 mM K-MOPS, 10 mM K2 H.HEEDTA, and 14 […] diazo-2 as starting materials, adjusting the pH to 7.24, recording the spectrum, and then discarding 1.0 mL of this solution and replacing with 1.0 mL of 100 mM KCl, 10 mM K.MOPS, 10 mM KCa.HEEDTA, 14 μM diazo-2, readjusting the pH to 7.24, and recording the spectra, which was then in 9 mM K2H.HEEDTA. Subsequent iterations to reach n mM KCa.HEEDTA, (10-n) mM HEEDTA, n=2-10, were done by discarding 10.0/(11-n) mL and replacing with equal volumes of the 10mM KCa.HEEDTA, 14 μM diazo-2 stock. After n=10 had been reached to give free Ca^2+ between 10^-5 and 10^-4 M, addition of 1 mM CaCl2 had no further effect on the spectrum. For clarity only six spectra are including in the figure, n=0, 2, 4, 6, 8, and 10. Each spectrum is labeled with the calculated free [Ca^2+ ] imposed by the HEEDTA buffer, assuming a log effective stability constant of 5.55 at pH 7.24.
(§2) The phenylacetate was produced by irradiating a 30 μM solution of diazo-2 in 100 mM KCl, 10 mM Tris.HCl, 10 mM K2 H.HEEDTA, pH 8.40, with Spectroline lamp at 365 nm to completion. The titration was then performed as in A but the pH was maintained at 8.40, at which the calculated log effective stability is constant for HEEDTA was 6.60.
(§3) Ca^2+ -binding constants for chelators before and after photolysis were determined by monitoring UV spectra during titration of EGTA or HEEDTA buffers to varying free Ca^2+ levels.
Either the ratio of, for example, [Ca.EGTA] to free [EGTA] was adjusted at a constant pH, or the pH was varied while [Ca.EGTA]=[EGTA]. These two approaches gave equivalent answers for pH>7 whenever directly tested, because of the pH insensitivity of BAPTA-like ligands (see FIG. 1 legend for more details). The apparent dissociation constants of Ca.EGTA and Ca.HEEDTA were calculated as described by R. Y. Tsien (1980); see also R. Y. Tsien, et al. (1986), S. R. Adams, et al. (1980), Grynkiewicz, et al., (1985), and Jackson, et al. (1987).

[2] = Mg2+ affinity in Mg/EGTA buffers; assay type: binding; conditions: 0.1-0.15M ionic strength, pH 7.0-7.4, 20-23° C.
Procedure: as §3
Free [Mg^2+ ] was likewise controlled by Mg/EGTA buffers, assuming an apparent dissociation constant for the Mg.EGTA complex (including its monoprotonated form) of 6 mM at pH 7.60 in 0.1M ionic strength; see R. Y. Tsien, et al. (1986) and A. E. Martell, et al. (1974).

[3] = Absorbance spectra of free and Ca2+-bound chelators; assay type: physicochemical
Procedure: as §1, §2
Proton magnetic resonance spectra (^1 H NMR) were recorded on a Varian EM-390 90-MHz spectrometer in CDCl3 unless otherwise noted, and the chemical shifts are given in δ values relative to tetramethylsilane. Ultraviolet (UV) absorbance spectra were recorded on a Cary 210 or a Perkin-Elmer Lambda Array 3840 spectrophotometer at 20°±2° C. Melting points are in Centigrade and are uncorrected. Elemental analyses were performed by the Microanalytical Laboratory in the Department of Chemistry, University of California, Berkeley, Calif.

[4] = Yield of high affinity chelator / low-affinity side product after photolysis; assay type: physicochemical; conditions: after photolysis
Procedure: Because of the direct conjugation of the dialkylamine moiety with the diazoketone group, diazo-2 has a large absorbance in the 350-400 nm range, which shifts 50 nm to shorter wavelengths on binding Ca^2+ (FIG. 1A). The dissociation constant for Ca^2+ is relatively high, at 2.2 μM, due to the electron withdrawing ability of the carbonyl group. Photolysis occurs at 365 nm with a quantum yield of 0.030. The peak at […] in zero Ca^2+ decreases to near baseline giving a spectrum similar to that of unsubstituted BAPTA, although a small peak remains at 355 nm (FIG. 1B). […] The reaction of diazo-2 with dilute aqueous acid should give the same product whose absorbance spectrum indeed matched that of the residual peak at 355 nm after photolysis in low Ca^2+. […] Once the extinction coefficient for the hydroxyacetyl derivative was known, the amount of the side product arising from photolysis is calculated to be about 10%.

[5] = after photolysis, read-out: Kd (Mg2+), after photolysis

| SMILES | Kd ([1]; after photolysis, 0.1-0.15M ionic strength, 20-23° C., read-out: Kd (Ca2+), after photolysis) | Kd ([1]; before photolysis, 0.1-0.15M ionic strength, pH 7.0-7.4, 20-23° C., read-out: Kd (Ca2+), before photolysis) | Kd [2, 5] | Kd ([2]; before photolysis, read-out: Kd (Mg2+), before photolysis) | εmax, +Ca2+ ([3]; +Ca2+, at λmax) | λmax, +Ca2+ ([3]; +Ca2+, dominant peak at longest wavelength) | εmax, free ([3]; free (zero Ca2+), at λmax) | shift of absorbance to shorter wavelengths on binding Ca2+ ([3]; on binding Ca2+) | Photolysis yield (yield of high affinity Ca2+ chelator after photolysis) [4] | Kd ([1]; negligible affinity, pre- and post-photolysis, read-out: Kd (Ca2+)) | λmax, free ([3]; free (zero Ca2+), dominant peak at longest wavelength) |
| --- | --- | --- | --- | --- | --- | --- | --- | --- | --- | --- | --- |
| Cc1ccc(N(CC(=O)O)CC(=O)O)c(OCCOc2cc(C(=O)C=[N+]=[N-])ccc2N(CC(=O)O)CC(=O)O)c1 [diazo-2, 1-(2-bis(carboxymethyl)amino-5-methyl) phenoxy-2-(2-bis(carboxymethyl)amino-5-(diazoacetyl)phenoxy) ethane] | 0.073 µM | 2.2 µM | 3.4 mM | 5.5 mM | 20.2 10^-3, M^-1 cm^-1 | 320 nm | 22.2 10^-3, M^-1 cm^-1 | 50 nm | 90 | – | – |
| COc1cc(C(=O)C=[N+]=[N-])ccc1N(CC(=O)O)CC(=O)O [diazo-3, 2-methoxy-4-(diazoacetyl)aniline-N, N-diacetic acid] | – | – | ~20 mM | – | – | – | 22.8 10^-3, M^-1 cm^-1 | – | 0 | > 1000 µM | 374 nm |
